For 78 molecules, GHS category results are on record in the CATMoS acute toxicity set (Mansouri et al. 2021).

The nature of this series: GHS categories as the set defines them, by LD50: 1 up to 5, 2 up to 50, 3 up to 300, 4 up to 2000, 5 above 2000 mg/kg. Particulars: rat; in vivo; po.

`Cc1ccc(C(=O)Nc2ccc(S(=O)(=O)O)cc2)cc1[N+](=O)[O-]` had a GHS category of 5.
The value for `CC1CC2(CC(C)OC2=O)C(=O)O1` (stereo not drawn) was 5; that for `CCCCOc1ccc(-c2ccc(C#N)cc2)cc1` was 5.
The value for `Fc1c(F)c(F)c(Cl)c(F)c1F` was 5; that for `Cc1[nH]c2ccc(O)cc2c1CC(=O)OCC(=O)O` was 5; that for `Nc1cccc2c(S(=O)(=O)O)cccc12` was 5.
The value for `Nc1cnn(CCO)c1N` was 5; that for `O=C(O)c1ccc(B(O)O)cc1` was 5; that for `O=c1[nH]cnc2c1ncn2[C@H]1CC[C@@H](CO)O1` was 5.
Molecule `CCCCCCCCC(=O)OCC(CC)(COC(=O)CCCCCCCC)COC(=O)CCCCCCCC` came in with a GHS category of 5.
The value for `NC(=O)Oc1ccc(Cl)cc1C(=O)Oc1ccccc1` was 5.
The value for `CCCCCC(CCC)COC(=O)c1ccccc1C(=O)OCC(CCC)CCCCC` (stereo not drawn) was 5.
Next, `CCCCCC(=O)[Si](C)(C)C`: 5.
In turn, `CCOP(=O)(CC(=O)Nc1cc2c(Nc3ccc(F)c(Cl)c3)ncnc2cc1O[C@H]1CCOC1)OCC` yielded a GHS category of 5.
Next, `COC(=O)C1=C(C)NC(C)=C(C(=O)OC(C)C)C1c1cccc2nonc12` (stereo not drawn): 5; `CCOC(=O)c1cn(C2CC2)c2cc(F)c(F)cc2c1=O`: 5; `CCc1c(Cc2ccc(-c3ccccc3-c3nn[nH]n3)cc2)c(=O)nc2nc[nH]n12`: 4.
Next, `CC(C)CCCCCCCOCCC#N`: 5.
Next, `O=[N+]([O-])c1ccc2c(c1)COP(=S)(NC1CCCCC1)O2` (stereo not drawn): 3; `O=C(NNc1cccc(C(F)(F)F)c1)c1cccnc1Cl`: 4; `CCCC(CCC)C(=O)Oc1cc(C(C)C)ccc1C`: 5.
In turn, `COC(=O)C(F)(F)C(F)(F)C(F)(F)OC(F)=C(F)F` gave a GHS category of 3.
The value for `CCCC1OC(Cn2cncn2)(c2cc3ccccc3o2)OCC1CC` (stereo not drawn) was 4.
Turning to `CCCc1c(Cc2ccc(-c3sccc3-c3nn[nH]n3)cc2)c(=O)nc2nc(C)[nH]n12`, the GHS category is 4.
For `C=CC(=O)OCCCCCC(C)C`, the GHS category is 5.
Next, `CC(C)=CCN(CC=C(C)C)CCC(C#N)(c1ccc2ccccc2c1)C(C)C` (stereo not drawn): 4; `Nc1cc(Br)c(O)c2c(O)c3c(N)cc(Br)c(O)c3c(O)c12`: 5.
Turning to `CC(C)(C=O)CN1CCOCC1`, the GHS category worked out at 5.
As to `Clc1cc(Cl)c2oc(C3(Cn4cncn4)OCCO3)cc2c1`, the GHS category is 4.
The value for `Clc1cccc(Cl)c1Nc1ccccc1` was 5.
Next, `COC(=O)c1ccc2c(C3CCCC3)cn(C)c2c1`: 5; `CCCC(O)CCO` (stereo not drawn): 5; `CC(C)CCCCCCCCCCCCCCC(=O)OC(C)C`: 5.
The value for `Oc1c(-c2[nH]c3ccccc3c2O)[nH]c2ccccc12` was 5.
As to `COC(=O)/C=C(/C)N[C@@H](C(=O)O)c1ccc(O)cc1`, the GHS category is given as 5.
Next, `CCC(O)OCc1c(Cl)ccc(Cl)c1Cl` (stereo not drawn): 5; `CCCCCCCC/C=C\CCCCCCCCCCCC(=O)O`: 5.
The value for `N#Cc1ccccc1-c1ccc(CBr)cc1` was 5; that for `CCCOC(=O)Nc1nc(N2CC=CCC2)cc2nc(=O)on12` was 5; that for `COc1ccccc1N1CCN(/C(=N\CC(C)C)Nc2ccc(Cl)c(Cl)c2)CC1` was 4.
Next, `C[Si](C)(CCCN)N1CCC[Si]1(C)C`: 4.
`C=CCN(C(C)=O)C(=O)Oc1cccc2c1OC(C)(C)O2`: the GHS category came out at 4.
Next, `CCOC(=O)c1c[nH]c2c(F)c(F)c(F)cc2c1=O`: 5; `O=C1NC(=O)C(c2ccc(O)cc2)(c2ccc(O)c(Cl)c2)N1` (stereo not drawn): 5; `COc1cc(-c2cc(OC)cc(C(C)(C)C)c2O)c(O)c(C(C)(C)C)c1`: 5.
Next, `CCCCCCCC/C=C\CCCCCCCC(=O)N(C)CC(=O)O`: 5; `Cc1ccc2ncc(C(=O)NC3CCCC3)c(=O)n2c1`: 3; `O=c1[nH]n(-c2cccc(C(F)(F)F)c2)c2ncccc12`: 4.
The molecule `OC[C@H]1O[C@@H](n2cnc3c(O)ncnc32)[C@H](O)[C@@H]1O` returned a GHS category of 5.
The value for `CCOC(=O)COc1ccc2c(=O)cc(-c3ccccc3)oc2c1` was 5; that for `CCCCCCCSCCCCN1CCCCCC1=O` was 5.
Regarding `CCOC(=O)c1nn(-c2ccc(OC)cc2)c2c1CCN(c1ccc([N+](=O)[O-])cc1)C2=O`, the GHS category was 5.
Next, `C[C@H]1O[C@]2(CS1)CN1CCC2CC1`: 3.
Next, `CCN(CC)c1ccc(N)cc1`: 3.
Next, `O=C(O)COc1ccc(Cl)cc1CO`: 5.
The molecule `C=C(C)C1CCC(C)C(O)C1` (stereo not drawn) displayed a GHS category of 5.
Next, `CCCCCCCCCCCC(=O)OOC(=O)CCCCCCCCCCC`: 5; `O=C(Nc1ccccc1-c1ccc(Cl)cc1)c1cccnc1Cl`: 5; `c1ccc(Cn2ccnc2-c2nn[nH]n2)cc1`: 5.
Next, `CCCCCCCCNC(=O)c1cnc2cccc(C)n2c1=O`: 3; `O=C(OCc1cncs1)Oc1ccc([N+](=O)[O-])cc1`: 5; `COP(=O)(NC(=O)C(C)C)SC` (stereo not drawn): 4.
The molecule `COc1cc2c(cc1OC)C(c1ccccc1F)N(c1ccccc1)CC2` (stereo not drawn) gave a GHS category of 4.
Next, `O=C(O)CNC(c1ccccc1)c1ccc(F)cc1` (stereo not drawn): 4; `c1cc2c(c(OCCN3CCCCC3)c1)OCCO2`: 5.
Next, `CC1(C)S[C@@H]2[C@H](NC(=O)[C@H](N)c3ccccc3)C(=O)N2[C@H]1C(=O)OCOC(=O)[C@@H]1N2C(=O)C[C@H]2S(=O)(=O)C1(C)C`: 5; `CCCC(=O)c1ccc2c(c1)OC(C)(C)C(=O)N2C`: 5.
The value for `O=C(O)c1ccccc1SSc1ccccc1C(=O)O` was 5; that for `CCCCCCCCCC=CC=O` was 5; that for `O=C1NC(=O)c2ccc3c4cccc5cccc(c6ccc1c2c63)c54` was 5.
`CCC(C)(C)NC(=O)c1cnc2cccc(C)n2c1=O` yielded a GHS category of 3.
The value for `O=CN(O)CCCP(=O)(O)O` was 5; that for `CCOC(=O)C(=O)Nc1cc(SC)nc(C)n1` was 4.
Next, `CN(C)C(=O)c1cc(C(=O)N(C)C)c2c(n1)C(=O)C(=O)c1cc(C(=O)N(C)C)[nH]c1-2`: 5; `Nc1nc2cc([N+](=O)[O-])ccc2o1`: 4.
The value for `CC(C)OP(O)(=S)OC(C)C` was 4; that for `O=C(CCc1ccc(O)cc1)Nc1ccccc1C(=O)O` was 5.
On to `CCCCC1C=C(C)CC(C)O1` (stereo not drawn), for which the GHS category worked out at 5.
